What all share (assay type): cell-based, mouse
The subject of assay [1] is AKT/mTOR signaling. Nature of the assay: PathScan Akt Signaling Antibody Array in macrophages. The note with it: lactate 5 mM for 15 min. The protocol:
FIG. 20. Lactate activates macrophage AKT/mTOR signaling via Gpr132. WT and Gpr132-KO bone marrow-derived macrophages were serum starved for 24 hrs. After treatment with lactate (5 mM) for 15 min, cell lysate was harvested for detecting the activation status of AKT signaling pathway using a PathScan Akt Signaling Antibody Array Kit. WT, wild-type; Gpr132-KO, Gpr132 knockout.
To identify the signaling pathways that may mediate the function of lactate-Gpr132 axis in M2 macrophage activation, PathScan Akt Signaling Antibody Array was used to screen potential targets due to the importance of the Akt pathway in macrophage polarization. […] These findings reveal that lactate activation of Gpr132 facilitates macrophage M2 activation by augmenting AKT/mTOR signaling.
Samples of 20 μg protein were applied to SDS polyacrylamide gels. After protein transfer, membranes were incubated with antibodies for Arg-1 (rabbit polyclonal, Santa Cruz Biotechnology), CD206, Gpr132, or β-actin (mouse monoclonal, Sigma) (1:1000) overnight at 4° C. […] Densitometric quantification was performed by Image-Pro Plus 6.0 software (Media Cybernetics). PathScan Akt Signaling Antibody Array (Cell Signaling) was incubated with macrophage proteins and analyzed following kit instructions.

Assay [2] relates to 4T1.2 cells. Nature of the assay: adherence assay of breast cancer cells to fibronectin. The note with it: macrophages activated by 4T1.2 CM or lactate (5 mM); vs untreated control macrophages. The procedure: FIGS. 11A-11C. Lactate-activated macrophage promotes cancer cell adhesion, migration and invasion via Gpr132. (FIG. 11A) Adherence assays. 4T1.2 cells were suspended in fibronectin ([…]) pre-coated plates with CM from spleen-derived macrophages (mf) that were treated with 4T1.2 CM or lactate (5 mM) with or without Gpr132 antibody (6 mg/ml) or normal IgG (6 mg/ml) for 10 min. The adhered cells were stained with crystal violet, dissolved in 1% Triton X-100 and measured by OD590. (FIGS. 11B-11C) Boyden chamber assay of cancer cell migration and invasion. 4T1.2 cells (B) or EO771 cells (FIG. 11C) were plated on the upper chamber inserts, with untreated (Control), 4T1.2 CM-activated or lactate-activated spleen-derived WT or Gpr132-KO macrophages plated in the lower chambers. For invasion assay, the inserts were pre-coated with 60 μl matrigel. After migration for 6 hrs (FIG. 11B) or invasion for 24 hrs (FIG. 11C), the migrated or invaded cells were stained with crystal violet and counted as cells per field of view under microscope (n=3-4); For (FIG. 11C), the first bar of each data set of the bar graphs represents the control mf, and the second bar represents Gpr132KO; *p<0.05; **p<0.01; ***p<0.005; ****p<0.001. […]
Cancer cells were treated with the conditioned medium from indicated macrophage for 2 hrs. Adherence of treated breast cancer cells to fibronectin was evaluated as described.

The test system of assay [3] is breast cancer cells (4T1.2, EO771). The assay is described as follows: Boyden chamber assay, cancer cell migration. The protocol: (§1) FIGS. 11A-11C. Lactate-activated macrophage promotes cancer cell adhesion, migration and invasion via Gpr132. (FIG. 11A) Adherence assays. 4T1.2 cells were suspended in fibronectin ([…]) pre-coated plates with CM from spleen-derived macrophages (mf) that were treated with 4T1.2 CM or lactate (5 mM) with or without Gpr132 antibody (6 mg/ml) or normal IgG (6 mg/ml) for 10 min. The adhered cells were stained with crystal violet, dissolved in 1% Triton X-100 and measured by OD590. (FIGS. 11B-11C) Boyden chamber assay of cancer cell migration and invasion. 4T1.2 cells (B) or EO771 cells (FIG. 11C) were plated on the upper chamber inserts, with untreated (Control), 4T1.2 CM-activated or lactate-activated spleen-derived WT or Gpr132-KO macrophages plated in the lower chambers. For invasion assay, the inserts were pre-coated with 60 μl matrigel. After migration for 6 hrs (FIG. 11B) or invasion for 24 hrs (FIG. 11C), the migrated or invaded cells were stained with crystal violet and counted as cells per field of view under microscope (n=3-4); For (FIG. 11C), the first bar of each data set of the bar graphs represents the control mf, and the second bar represents Gpr132KO; *p<0.05; **p<0.01; ***p<0.005; ****p<0.001. Scale bar, 500 μm.
(§2) FIGS. 23A-23B. Cancer cell-derived lactate activates macrophages to promote cancer cell migration and invasion via Gpr132. (FIGS. 23A-23B) Boyden chamber assay. EO771 or 4T1.2 cells were cultured in the presence or absence of oxamic acid (90 mM) for 3 days. CM was harvested after the cells were cultured for another 24 hrs without oxamic acid. As a rescue, CM of oxamic acid-treated EO771 or 4T1.2 cells was supplemented with exogenous lactate. […] After migration for 6 hrs (FIG. 23A) or invasion for 24 hrs (FIG. 23B), the migrated or invaded cells were stained with crystal violet and counted as cells per field of view under microscope (n=3-4); for (FIG. 23A), the bars in each data set of the bar graph represent, from left to right, control, EO771, Oxamic acid, and Oxamic acid+Lactate; for (FIG. 23B), the bars in each data set of the bar graph represent, from left to right, control, 4T1.2CM, Oxamic acid, and Oxamic acid+Lactate; *p<0.05; ****p<0.001. […]
Migration or invasion of breast cancer cells was examined using 24-well Boyden chambers (Corning, Corning, N.Y.) with transwell inserts of […] pore size, coated without (for migration) or with matrigel (for invasion) as previously reported. […] The migrated or invaded cells were fixed with methanol and stained with crystal violet (0.05%, sigma), and then counted as cells per field of view under microscope or measured as OD570 after crystal violet was dissolved.

The subject of assay [4] is breast cancer cells (EO771, 4T1.2). Nature of the assay: Boyden chamber assay, cancer cell invasion (matrigel). The protocol: as §1
as §2, with “acid.” for “acid. As a rescue, CM of oxamic acid-treated EO771 or 4T1.2 cells was supplemented with exogenous lactate.”

Setting [5] is: exogenous lactate, WT macrophages.

The structures appear in SMILES notation.

`CC(O)C(=O)O` (centres unmarked) [lactate]: the “increase of AKT/mTOR pathway phosphorylation in Gpr132-KO macrophages” value in assay [1] (Gpr132-KO BMDMs) is recorded as “not”. Besides, the “phosphorylation of AKT (Thr308), mTOR (Ser2481), S6 Ribosomal protein (Ser235/236) and RSK-1 (Thr421/Ser424) in WT macrophages” value in assay [1] (serum starved WT BMDMs) was “increased”. Moreover, the “adherence of 4T1.2 cells to fibronectin with CM from activated macrophages” value in assay [2] is on record as “significantly increased”. The “number of migrated cancer cells with activated WT macrophages” value in assay [3] (4T1.2 cells, 6 hrs, vs untreated WT macrophages) was “significantly enhanced”. Also, the “effects on cancer cell migration with Gpr132-KO macrophages” value in assay [3] (Gpr132 deletion in macrophages) is reported as “attenuated”. Also, the “rescue of migration by addition to oxamic acid-pretreated cancer cell CM” value in assay [3] (setting [5]) was “restored”. Also, the “breast cancer cell invasion induced by activated macrophages, Gpr132 deletion” value in assay [4] (EO771 cells, 24 hrs, Gpr132-KO macrophages) is reported as “completely abrogated”. Further, the “rescue of invasion by addition to oxamic acid-pretreated cancer cell CM” value in assay [4] (setting [5]) is given as “restored”.

For the origin of these results see patent US20210095293A1, “METHODS OF TREATING CANCERS WITH GPR132 INHIBITORS” (The Board of Regents of the University of Texas System, priority 2016, published 2021).
